Data from patent US20210127678A1, “ESTERS OF HETEROCYCLIC COMPOUNDS HAVING A NEMATOCIDAL ACTIVITY, THEIR AGRONOMIC COMPOSITIONS AND THEIR USE” (ISAGRO, S.P.A., priority 2018, published 2021).

Legend:
[1] = tested on: Meloidogyne sp.; assay: Determination of nematocidal activity against Meloidogyne sp. on potted cucumbers, cv Chinese Long; assay type: in vivo; conditions: 30 days after transplantation; for % INFESTED ROOT / ROOT DEVELOPMENT / ALL INDEX scale 0-10: 4,000 g/hectare; for ROOT DEVELOPMENT: 100% = healthy comparative root; for ALL INDEX scale 0-10: Bridge-Page infestation scale
Description: Determination of Nematocidal Activity Against Meloidogyne sp. The tests aimed at testing the nematocidal activity of the product under examination were carried out using inoculae taken from a farming of Meloidogyne sp. maintained on potted tomato and cucumber plants and grown in greenhouses. To carry out the experiments, portions of roots having a good number of galls and soil were taken from the infested pots, in which larvae were present starting from the second stage of age. New pots having a diameter of 15 cm were half filled with sterile soil. The portions of infested roots, previously cleaned up, were placed on the same in order to be able to correctly assess the degree of infestation and ensure that each pot contains the same nematic charge. 200-300 g of infested soil were subsequently added, then covered with a thin layer of sterile soil. The treatment was carried out by pouring 100 ml of solution on the surface of the soil, in which the product to be tested was dissolved. Tomato or cucumber seedlings at the stage of two or three true leaves were transplanted in the pots thus prepared, one or seven days after application. Different cultivars of tomato or cucumber were used, having a different sensitivity to the parasite and different growth times. In particular, a variety of ornamental tomatoes (cv Microtom) was used for assessing the final production, whose seedlings are small in size and are able to reach the ripeness of the fruit in pots and under greenhouse conditions in about two months The containment capacity of the parasite was detected, 30 and 60 days after transplantation, considering the development of the root system (where 100% is the development achieved by the healthy comparative root) and the presence of galls on the roots. This was estimated using the infestation scale proposed by Bridge-Page, according to which the value zero corresponds to 0% of the root affected and the value 10 corresponds to 100% of infested root. […] 2, 4, 12, 13, 17 and the Compound CR1, on cucumbers, cv Chinese Long, at a dose of 4,000 g/hectare, effecting the survey 30 days after transplantation. […] 2, 4, 8, 12, 13, 17, 127, 129 and the Compound CR1, on cucumbers, cv Chinese Long, at doses of 2,000 g/hectare, 1,000 g/hectare and 500 g/hectare effecting the survey 30 days after transplantation.

[2] = tested on: cucumbers, cv Chinese Long; assay: Phytotoxicity on cucumbers, cv Chinese Long (soil treatment of potted plants); assay type: in vivo, cucumber; conditions: zero=no symptoms, 10=destroyed plant
Description: New pots having a diameter of 15 cm were half filled with sterile soil. The portions of infested roots, previously cleaned up, were placed on the same in order to be able to correctly assess the degree of infestation and ensure that each pot contains the same nematic charge. 200-300 g of infested soil were subsequently added, then covered with a thin layer of sterile soil. The treatment was carried out by pouring 100 ml of solution on the surface of the soil, in which the product to be tested was dissolved. Tomato or cucumber seedlings at the stage of two or three true leaves were transplanted in the pots thus prepared, one or seven days after application. Different cultivars of tomato or cucumber were used, having a different sensitivity to the parasite and different growth times. In particular, a variety of ornamental tomatoes (cv Microtom) was used for assessing the final production, whose seedlings are small in size and are able to reach the ripeness of the fruit in pots and under greenhouse conditions in about two months The product was evaluated considering the possible phytotoxic effects that may compromise the development of the plant (in this case a zero-ten scale was used, according to which zero=no symptoms, 10=destroyed plant) and the effectiveness against nematodes. […] 2, 4, 12, 13, 17 included in general formula (I) and CR1, described in JP 2000038379 instead of the compound having general formula (I).

Structure (SMILES) | % INFESTED ROOT [1] | ROOT DEVELOPMENT [1] | ALL INDEX scale 0-10 [1] | GALL INDEX (scale 0-10) ([1]; dose applied 0.5 kg ai/ha) | WEIGHT OF FRESH PLANT ([1]; dose applied 0.5 kg ai/ha) | GALL INDEX (scale 0-10) ([1]; dose applied 1 kg ai/ha) | WEIGHT OF FRESH PLANT ([1]; dose applied 1 kg ai/ha) | GALL INDEX (scale 0-10) ([1]; dose applied 2 kg ai/ha) | WEIGHT OF FRESH PLANT ([1]; dose applied 2 kg ai/ha) | Phytotoxicity (scale 0-10) [2]
O=C(OCCC(F)=C(F)F)c1cccnc1 [CR1, pyridyl-3-carboxylate of 3,4,4-trifluoro-3-butenyl, reference compound] | 8% | 70% | 0.8 | 4.8 | 23 g | 3.5 | 25 g | 2.8 | 30 g | 0
Cc1nc(C(F)F)c(C(=O)OCCC(F)=C(F)F)s1 [Comp. Nr. 2, 2-methyl-4-difluoromethyl-thiazole-5-carboxylate of 3,4,4-trifluoro-3-butenyl] | 3% | 90% | 0.3 | 2.8 | 36 g | 2.6 | 37 g | 1.4 | 35 g | 0
Cc1nnc(C(=O)OCCC(F)=C(F)F)s1 [Comp. Nr. 4, 5-methyl-1,3,4-thiadiazole-2-carboxylate of 3,4,4-trifluoro-3-butenyl] | 3% | 90% | 0.3 | 2.2 | 35 g | 1.9 | 37 g | 1.9 | 34 g | 0
O=C(OCCC(F)=C(F)F)c1csc(C(F)(F)F)n1 [Comp. Nr. 8] | – | – | – | 2.5 | 25 g | 2.3 | 27 g | 1.2 | 37 g | –
O=C(OCCC(F)=C(F)F)c1cccnc1C(F)(F)F [Comp. Nr. 12] | 0% | 95% | 0 | 3.1 | 27 g | 2.9 | 28 g | 2.1 | 31 g | 0
Cn1cc(C(=O)OCCC(F)=C(F)F)c(C(F)F)n1 [Comp. Nr. 13] | 0% | 95% | 0 | 2.1 | 36 g | 1.2 | 38 g | 1.2 | 39 g | 0
O=C(OCCC(F)=C(F)F)c1cn2cc(C(F)(F)F)cc(Cl)c2n1 [Comp. Nr. 17] | 3% | 85% | 0.3 | 3.3 | 26 g | 2.8 | 28 g | 2.2 | 31 g | 0
O=C(OCCC(F)=C(F)F)c1cncnc1 [Comp. Nr. 127] | – | – | – | 3.4 | 26 g | 2.1 | 29 g | 0.9 | 36 g | –
Cc1cc(C(=O)OCCC(F)=C(F)F)no1 [Comp. Nr. 129] | – | – | – | 3.6 | 25 g | 2.4 | 26 g | 0.9 | 35 g | –
